Experimental data reported in patent publication US11617748B2, “Meclozine derivatives and diclazuril derivatives for use in the prevention and/or the treatment of disorders associated to the inflammation induced by P. acnes” (priority 2016, dated 2023).

Assays:
Format in all cases: cell-based, human
[1] = test system: PPARα; experiment: Western blot of PPARα expression in P. acnes-stimulated HaCaT cells; settings: 25 μM, 24 h pre-treatment
Protocol: (§1) Western Blot analysis. Whole cell protein extracts (25 μg) were separated by electrophoresis (LDS-PAGE) under denaturing conditions with NuPAGE Novex 4-12% Bis-Tris gel (1 mm, 12 wells, Invitrogen, UK) and proteins were transferred onto nitrocellulose membranes and saturated in 20 ml of saturation buffer consisting of TBS 1× (Tris Buffered Saline) containing 200 mM Tris, 1.4 M NaCl (pH 7.6), 5% no fat milk, 0.1% Tween 20 for 1 h. […] After washing to remove unbound antibodies, bound primary antibodies were detected by incubation for 1 h using secondary antibody against rabbit- and mouse IgG (Santa Cruz Biotechnology, SC-2357, 1:5000 and SC-2005, 1:5000, respectively). Unbound material was removed by washing and peroxidase activity was detected in a chemiluminescence assay (WesternBright ECL, Advansta, Menlo Park, USA). […]

[2] = test system: IL-8 production; experiment: IL-8 production by M5-stimulated NHDK, in vitro psoriasis-like model (ELISA); settings: NHDK + M5, 48 h
Protocol: (§2) Cell culture, pretreatment and stimulation.
(§3) ELISA. Human IL-1β, IL-8, hBD-2 and TNF-α protein concentration were measured in the supernatants of stimulated cells using various ELISA Sets (all from Ready-Set-Go from eBioscience, except hBD-2 measurements: Human DEFB4A/BD-2 ELISA Kit from LSBio) according to the manufacturer's instructions. We used serial dilutions of recombinant human IL-1β, IL-8, hBD-2 and TNF-α for standard curve. The optical density was determined at 450 nm at a wavelength correction of 540 nm.

[3] = test system: Akt; experiment: Western blot of p-Akt/Akt in P. acnes-stimulated HaCaT cells; settings: 25 μM, 24 h pre-treatment
Protocol: as §1

[4] = test system: HaCaT cells; experiment: MTT cell viability assay on HaCaT keratinocytes
Protocol: Cell culture, pretreatment and stimulation. The immortalized human keratinocyte cell line HaCaT, fibroblast MRC5 were grown in Dulbecco's modified Eagle's medium-Glutamax-I (DMEM) with 1 mM sodium pyruvate. […] DMEM and RPMI were supplemented with 0.1% and 10% heat-inactivated fetal calf serum (Invitrogen), and an antibiotic/antimycotic solution (10 U/ml Pencillin, 10 μg/ml Streptomycin, 0.25 μg/ml Amphoterin) at 37° C. in humidified atmosphere containing 5% CO2 as described (Life Technologie). Primary human keratinocytes (NHDK) and fibroblast (HDF) were grown in the KGM-Gold and in FGM-2 Bullet Kit, respectively, as described by the manufacturer (Lonza). The immortalized cell lines were routinely tested to assess the absence of Mycoplasma infection. Cells, cultivated in 6- or 96-well polystyrene plates, were pretreated with appropriate molecule solution for 1 to 48 h at 37° C. in the dark at the appropriate concentration. Then, for stimulation, cells were incubated for 15 min to 24 h with the P. acnes suspension adjusted at the appropriate concentration at 37° C. in 5% CO2. For experiences using an in vitro model of psoriasis, the primary human keratinocytes (NHDK) were grown in culture medium for 24 hours.
Cell viability assays. Viability of cells was estimated by using the MTT assay where cells were incubated with a 0.2% MTT solution in cell culture medium for 4 h at 37° C. The MTT solution was then discarded and DMSO added to solubilize the MTT-formazan cristals produced in living cells. After thorough mixing, the absorbance was measured at 540 nm.

[5] = test system: hBD-2 production; experiment: hBD-2 production by M5-stimulated NHDK, in vitro psoriasis-like model (ELISA); settings: NHDK + M5, 48 h
Protocol: as §2, §3

| Compound | expression of PPARα [1] | IC50 ([2]; Homo sapiens, read-out: IC50 of decrease of IL-8 production) | decrease of IL-8 production ([2]; at 3,125 μM) | phosphorylation of Akt induced by P. acnes [3] | impact on cell viability (MTT), 48 h pre-treatment [4] | decrease of hBD-2 production ([5]; at 12.5 μM) | effect on IL-8 production, in words ([2]; 0.39 to 12.5 μM) | effect on hBD-2 production, in words ([5]; 0.39 to 12.5 μM) |
| --- | --- | --- | --- | --- | --- | --- | --- | --- |
| N#CC(c1ccc(Cl)cc1)c1c(Cl)cc(-n2ncc(=O)[nH]c2=O)cc1Cl (centres unmarked) [diclazuril, Diclazuril] | no change | 2 to 3 µM | 66% | prevented the phosphorylation | without any major impact on cell viability | 68% | – | – |
| Cc1cccc(CN2CCN(C(c3ccccc3)c3ccc(Cl)cc3)CC2)c1 (centres unmarked) [meclozine, Meclozine] | strongly decrease | – | – | prevented the phosphorylation | without any major impact on cell viability | – | no effect | no effect |
